Patent publication EP1801112A1, “Bicyclic pyrimidines and bicyclic 3,4-dihydropyrimidines as inhibitors of cellular proliferation” (Warner-Lambert Company LLC, priority 1998, dated 1999)

What was measured:
[1] = molecular target: cdk4/D (Homo sapiens, UniProt P11802); test: Cyclin-Dependent Kinase 4 (cdk4) Assay; type: biochemical
Procedure: A typical assay, for instance, measures inhibitory activity against the cyclin D dependent kinase 4 enzyme (cdk4/D). […] The cdk4 assay was carried out as follows.
Cyclin-Dependent Kinase 4 (cdk4) Assay
Enzyme assays for IC50 determinations (Tables 1 and 2) and kinetic evaluation were performed in 96 well filter plates (Millipore MADVN6550). The total volume was 0.1 mL containing a final concentration of 20 mM TRIS (tris[hydroxymethyl]aminomethane), at pH 7.4, 50 mM NaCl, 1 mM dithiothreitol, 10 mM MgCl2, 25 µM ATP containing 0.25 µCi of [^32P]ATP, 20 ng of cdk4, 1 µg of retinoblastoma, and appropriate dilutions of a compound of the present invention. All components except the ATP were added to the wells, and the plate was placed on a plate mixer for 2 minutes. The reaction was started by adding [^32P]ATP and the plate was incubated at 25°C for 15 minutes. The reaction was terminated by addition of 0.1 mL of 20% trichloroacetic acid (TCA). The plate was kept at 4°C for at least 1 hour to allow the substrate to precipitate. The wells were then washed five times with 0.2 mL of 10% TCA and ^32P incorporation was determined with a beta plate counter (Wallac Inc., Gaithersburg, MD).

[2] = molecular target: cdk2/cyclinE (Homo sapiens, UniProt P24941); test: Cyclin-Dependent Kinase Assay cdk2/cyclinE; type: biochemical
Procedure: (§1) Cyclin-Dependent Kinase Assays (cdk2/cyclinE, cdk2/cyclinA, cdc2/cyclinB)
(§2) All components except the ATP were added to the wells, and the plate was placed on a plate mixer for 2 minutes. The reaction was begun by addition of [^32P]ATP, and the plate was incubated at 25°C for 15 minutes. The reaction was terminated by addition of 0.1 mL of 20% TCA. The plate was kept at 4°C for at least 1 hour to allow the substrate to precipitate. The wells were then washed five times with 0.2 mL of 10% TCA and ^32P incorporation determined with a beta plate counter (Wallac Inc., Gaithersburg, MD).

[3] = molecular target: cdk2/cyclinA (Homo sapiens, UniProt P24941); test: Cyclin-Dependent Kinase Assay cdk2/cyclinA; type: biochemical
Procedure: as §1, §2

[4] = molecular target: cdc2/cyclinB (Homo sapiens, UniProt P06493); test: Cyclin-Dependent Kinase Assay cdc2/cyclinB; type: biochemical
cdc2/cyclinB, sequence (P06493 whole entry): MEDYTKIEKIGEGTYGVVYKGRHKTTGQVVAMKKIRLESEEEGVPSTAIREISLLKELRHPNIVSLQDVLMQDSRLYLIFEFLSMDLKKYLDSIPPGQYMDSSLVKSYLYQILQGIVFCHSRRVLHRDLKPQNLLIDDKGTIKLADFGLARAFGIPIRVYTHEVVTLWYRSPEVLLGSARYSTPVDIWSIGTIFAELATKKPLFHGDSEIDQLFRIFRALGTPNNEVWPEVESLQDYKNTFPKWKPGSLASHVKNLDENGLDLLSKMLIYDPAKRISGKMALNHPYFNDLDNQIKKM
cdc2/cyclinB, sequence (P14635 whole entry, further chain): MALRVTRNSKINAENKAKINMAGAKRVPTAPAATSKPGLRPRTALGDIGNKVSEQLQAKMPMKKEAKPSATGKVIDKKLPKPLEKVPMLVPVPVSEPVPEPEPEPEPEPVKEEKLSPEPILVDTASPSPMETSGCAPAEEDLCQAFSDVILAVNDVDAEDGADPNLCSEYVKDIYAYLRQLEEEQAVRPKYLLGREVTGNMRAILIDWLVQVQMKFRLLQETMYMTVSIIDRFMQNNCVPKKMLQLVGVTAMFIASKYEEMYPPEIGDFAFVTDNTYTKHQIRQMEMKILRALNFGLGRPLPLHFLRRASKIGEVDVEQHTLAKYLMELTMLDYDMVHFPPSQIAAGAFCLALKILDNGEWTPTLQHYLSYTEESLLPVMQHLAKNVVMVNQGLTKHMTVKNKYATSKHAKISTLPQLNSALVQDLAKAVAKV
Procedure: as §1, §2

[5] = molecular target: T1, PDGF-β receptor tyrosine kinase (Mus musculus, UniProt P05622); test: PDGF Receptor Tyrosine Kinase Assay; type: biochemical; conditions: glutamate-tyrosine co-polymer substrate, 50 µM ATP
T1 construct: amplify a fragment of DNA that codes for the intracellular tyrosine kinase domain; made in house; host or cells: SF9 insect cells (baculovirus); crude cell lysate used
T1 sequence (P05622 599-961 limits assumed): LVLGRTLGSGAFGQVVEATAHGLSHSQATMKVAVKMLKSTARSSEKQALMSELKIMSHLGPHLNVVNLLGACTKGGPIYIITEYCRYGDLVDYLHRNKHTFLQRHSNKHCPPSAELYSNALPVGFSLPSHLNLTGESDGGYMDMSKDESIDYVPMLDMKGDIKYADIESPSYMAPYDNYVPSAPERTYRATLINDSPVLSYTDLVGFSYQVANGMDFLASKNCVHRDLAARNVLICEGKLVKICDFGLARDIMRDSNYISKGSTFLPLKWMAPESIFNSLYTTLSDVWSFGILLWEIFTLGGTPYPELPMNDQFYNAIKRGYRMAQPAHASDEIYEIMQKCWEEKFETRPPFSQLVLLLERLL
Description: (§3) PDGF and FGF Receptor Tyrosine Kinase Assays
(§4) Full-length cDNAs for the mouse PDGF-β and human FGF-1 (flg) receptor tyrosine kinases were obtained from J. Escobedo and prepared as described in J. Biol. Chem., 1991;262:1482-1487. PCR primers were designed to amplify a fragment of DNA that codes for the intracellular tyrosine kinase domain. The fragment was inserted into a baculovirus vector, cotransfected with AcMNPV DNA, and the recombinant virus isolated. SF9 insect cells were infected with the virus to overexpress the protein, and the cell lysate was used for the assay. Assays were performed in 96-well plates (100 µL/incubation/well), and conditions were optimized to measure the incorporation of ^32P from γ^32P-ATP into a glutamate-tyrosine co-polymer substrate. Briefly, to each well was added 82.5 µL of incubation buffer containing 25 mM Hepes (pH 7.0), 150 mM NaCl, 0.1% Triton X-100, 0.2 mM PMSF, 0.2 mM Na3VO4, 10 mM MnCl2, and 750 µg/mL of Poly (4:1) glutamate-tyrosine followed by […] of inhibitor and 5 µL of enzyme lysate (7.5 µg/µL FGF-TK or 6.0 µg/µL PDGF-TK) to initiate the reaction. Following a 10 minute incubation at 25°C, 10 mL of γ^32P-ATP (0.4 µCi plus 50 µM ATP) was added to each well, and samples were incubated for an additional 10 minutes at 25°C. The reaction was terminated by the addition of 100 µL of 30% trichloroacetic acid (TCA) containing 20 mM sodium pyrophosphate and precipitation of material onto glass fiber mats (Wallac). Filters were washed three times with 15% TCA containing 100 mM sodium pyrophosphate, and the radioactivity retained on the filters counted in a Wallac 1250 Betaplate reader. Nonspecific activity was defined as radioactivity retained on the filters following incubation of samples with buffer alone (no enzyme). Specific enzymatic activity (enzyme plus buffer) was defined as total activity minus nonspecific activity. […]

[6] = molecular target: T2, FGF-1 (flg) receptor tyrosine kinase (Homo sapiens, UniProt P11362); test: FGF Receptor Tyrosine Kinase Assay; type: biochemical; conditions: glutamate-tyrosine co-polymer substrate, 50 µM ATP
T2 construct: amplify a fragment of DNA that codes for the intracellular tyrosine kinase domain; made in house; host or cells: SF9 insect cells (baculovirus); crude cell lysate used
T2 sequence (P11362 478-767 limits assumed): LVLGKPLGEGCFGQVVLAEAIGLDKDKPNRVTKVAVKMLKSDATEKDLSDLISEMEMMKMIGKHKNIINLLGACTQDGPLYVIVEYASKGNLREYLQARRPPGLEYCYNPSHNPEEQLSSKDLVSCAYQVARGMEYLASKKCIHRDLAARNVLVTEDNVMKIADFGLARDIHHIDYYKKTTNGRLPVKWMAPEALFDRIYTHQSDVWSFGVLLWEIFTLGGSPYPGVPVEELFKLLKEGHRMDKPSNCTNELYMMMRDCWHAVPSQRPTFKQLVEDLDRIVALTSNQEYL
Procedure: as §3
as §4, with “PCR” for “Full-length cDNAs for the mouse PDGF-β and human FGF-1 (flg) receptor tyrosine kinases were obtained from J. Escobedo and prepared as described in J. Biol. Chem., 1991;262:1482-1487. PCR”, “Following a 10 minute incubation at 25°C, 10 mL of γ^32P-ATP (0.4 µCi plus 50 µM ATP) was added to each well, and samples were incubated for an additional 10 minutes at 25°C.” left out, “Filters were washed three times with 15% TCA containing 100 mM sodium pyrophosphate, and the radioactivity retained on the filters counted in a Wallac 1250 Betaplate reader.” left out

[7] = molecular target: T3, c-Src (Homo sapiens, UniProt P12931); test: c-Src protein kinase assay; type: biochemical; conditions: poly GluTyr substrate, 5 µM ATP
T3 construct: made in house; host or cells: baculovirus infected insect cells
T3 sequence (P12931 whole entry): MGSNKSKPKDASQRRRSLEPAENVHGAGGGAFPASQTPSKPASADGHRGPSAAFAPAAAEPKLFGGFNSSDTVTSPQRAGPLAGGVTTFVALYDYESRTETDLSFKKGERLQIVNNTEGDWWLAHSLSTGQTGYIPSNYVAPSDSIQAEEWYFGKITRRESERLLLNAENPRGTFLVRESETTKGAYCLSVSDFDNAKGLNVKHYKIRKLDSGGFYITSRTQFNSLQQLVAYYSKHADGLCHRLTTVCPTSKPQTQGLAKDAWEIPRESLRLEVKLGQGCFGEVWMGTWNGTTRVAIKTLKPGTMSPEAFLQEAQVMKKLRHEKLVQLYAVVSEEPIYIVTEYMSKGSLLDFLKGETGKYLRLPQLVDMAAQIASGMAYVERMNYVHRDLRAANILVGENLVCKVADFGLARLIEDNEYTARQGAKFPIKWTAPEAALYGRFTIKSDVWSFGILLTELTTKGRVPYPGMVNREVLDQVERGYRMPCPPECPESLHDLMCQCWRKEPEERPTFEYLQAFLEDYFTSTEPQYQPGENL
Procedure: The assay was carried out as follows: c-Src kinase was purified from baculovirus infected insect cell lysates using an antipeptide monoclonal antibody directed against the N-terminal amino acids (amino acids 2-17) of c-Src. The antibody, covalently linked to 0.65 µm latex beads, was added to a suspension of insect cell lysis buffer comprised of 150 mM NaCl, 50 mM Tris pH 7.5, 1 mM DTT, 1% NP-40, 2 mM EGTA, 1 mM sodium vanadate, 1 mM PMSF, 1 µg/mL each of leupeptin, pepstatin, and aprotinin. Insect cell lysate containing c-Src protein was incubated with these beads for 3 to 4 hours at 4°C with rotation. At the end of the lysate incubation, the beads were rinsed three times in lysis buffer, resuspended in lysis buffer containing 10% glycerol, and frozen. These latex beads were thawed, rinsed three times in assay buffer (40 mM Tris, pH 7.5, […]) and suspended in the same buffer. In a Millipore 96-well plate with a 0.65 µm polyvinylidine membrane bottom were added the reaction components: 10 µL c-Src beads, 10 µL of 2.5 mg/mL poly GluTyr substrate, 5 µM ATP containing 0.2 µCi labeled ^32P-ATP, 5 µL DMSO containing inhibitors or as a solvent control, and buffer to make the final volume 125 µL. The reaction was started at room temperature by addition of the ATP and quenched 10 minutes later by the addition of 125 µL of 30% TCA, 0.1 M sodium pyrophosphate for 5 minutes on ice. […] The filters were then punched, counted in a liquid scintillation counter, and the data examined for inhibitory activity in comparison to a known inhibitor such as erbstatin. […]

[8] = system: human umbilical vein endothelial cells; test: Human Umbilical Vein Endothelial Cell (HUVEC) Proliferation Assay; type: cell-based; conditions: 96 h, four days incubation, Sulphorhodamine B staining
Procedure: The compounds of Formula I are useful for treating cell proliferative disorders concerning angiogenesis and have been evaluated in a human umbilical vein endothelial cell in vitro assay. The assay described below is used to determine the anti-proliferative effects of the invention compounds on human umbilical vein endothelial cells, and the results are shown in Table 7.
Human Umbilical Vein Endothelial Cell (HUVEC) Proliferation Assay
Ninety-six well tissue culture plates are seeded with 100 µL of cells in all wells of rows A->G with row H remaining empty as a blank. HUVEC (Clonetics, San Diego, CA) are grown in endothelial growth medium (EGM media, Clonetics), containing 2% fetal bovine serum. The cell seed density for HUVEC cells is 20,000 per mL. C6 cells (ATCC Cat. No. CCL-107) are seeded at 6000 per mL in F10 medium (nutrient mixture Hemes) supplemented with 15% horse serum, 2.5% fetal bovine serum, and 6.0 mL 200 mM Glutamine per 600 mL medium. A90 cells (Suny, Buffalo, NY) are also seeded at 6000 per mL, but they are grown in RPMI 1640 (Roswell Park Memorial Institute) plus 10% fetal bovine serum. Unless noted otherwise, tissue culture media and components are from GIBCO. The cells are allowed to incubate at 37°C, 5% CO2, and 100% relative humidity for 16-24 hours.
Invention compounds are prepared by dissolving them in DMSO at a concentration of 5 mM, followed by dilution to 50 µM in EGM media. One hundred microliters of the compounds are applied to duplicate wells in column 1 of the previously prepared cell plates. Column 1 row H receives 100 µL of EGM media. The compounds in column 1 are diluted across the plates using serial twofold dilutions.
The plates are incubated as above for an additional four days before being stained with Sulphorhodamine B. Staining is performed as follows: The media is removed from the plates, and the cells are fixed using 10% trichloroacetic acid for 30 minutes at 4°C. Following fixation, the plates are washed five times with distilled water after which 100 µL of Sulphorhodamine B is added to each well. Sulphorhodamine B is dissolved in 1% acetic acid to a concentration of .075%. Following staining, excess stain is removed from the wells, and the plates are washed four times with 1% acetic acid. The plates are allowed to air dry before the bound dye is solubilized in 100 µL of 10 mM unbuffered TRIS base. Absorbance is measured on a 96 well plate reader at […] using a reference filter wavelength of 630 nm. […] Sulphorhodamine B and TRIS are from Sigma Chemical Company. Acetic acid and trichloroacetic acid are from Mallinckrodt AR.

cdk4/D, sequence (P11802 whole entry): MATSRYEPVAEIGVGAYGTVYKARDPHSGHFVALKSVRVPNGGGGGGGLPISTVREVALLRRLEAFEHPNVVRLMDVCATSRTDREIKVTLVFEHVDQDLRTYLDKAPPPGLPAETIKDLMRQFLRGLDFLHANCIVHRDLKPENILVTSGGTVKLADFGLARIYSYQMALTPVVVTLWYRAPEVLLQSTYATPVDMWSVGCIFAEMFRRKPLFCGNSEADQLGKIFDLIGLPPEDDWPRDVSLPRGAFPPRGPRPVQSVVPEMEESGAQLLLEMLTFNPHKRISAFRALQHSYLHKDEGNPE
cdk4/D, sequence (P24385 whole entry, further chain): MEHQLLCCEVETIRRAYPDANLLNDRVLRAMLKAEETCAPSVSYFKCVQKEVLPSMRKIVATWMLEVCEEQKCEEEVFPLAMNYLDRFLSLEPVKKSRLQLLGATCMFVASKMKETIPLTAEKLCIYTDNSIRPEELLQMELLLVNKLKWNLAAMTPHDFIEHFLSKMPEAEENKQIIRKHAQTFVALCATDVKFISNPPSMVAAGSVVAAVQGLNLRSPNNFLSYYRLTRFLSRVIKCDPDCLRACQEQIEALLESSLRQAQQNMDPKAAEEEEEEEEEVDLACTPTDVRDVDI

| Structure (SMILES) | IC50 [1] | IC50 [5] | IC50 [6] | IC50 [8] | other results |
| --- | --- | --- | --- | --- | --- |
| O=c1ncc2cnc(Nc3ccc(-n4cccn4)cc3)nc2n1C1CCCC1 [Example 36, 1-Cyclopentyl-7-[4-(pyrazol-1-yl)phenylamino]pyrimido[4,5-d]pyrimidin-2(1H)-one] | 435 nM | > 50 µM | > 50 µM |  | IC50 [2]: 2440 nM; IC50 [3]: 1330 nM; IC50 [4]: 16100 nM |
| CC1CN(c2ccc(Nc3ncc4c(n3)N(C3CCCC3)C(=O)NC4)cc2)CC(C)N1 (stereo not shown) [Example 18, 1-Cyclopentyl-7-[4-(3,5-dimethylpiperazin-1-yl)phenylamino]-3,4-dihydropyrimido[4,5-d]pyrimidin-2(1H)-one] | 350 nM | 0.21 µM |  |  | IC50 [2]: 2000 nM; IC50 [7]: 400 nM |
| CCN(CC)CCOc1ccc(Nc2ncc3c(n2)N(CC)C(=O)N(c2cc(OC)cc(OC)c2)C3)cc1 [Example 53a, 7-[4-(2-Diethylamino-ethoxy)-phenylamino]-3-(3,5-dimethoxy-phenyl)-1-ethyl-3,4-dihydro-pyrimido[4,5-d]pyrimidin-2(1H)-one] |  | < 0.5 µM | 0.02 µM |  |  |
| C=CCn1c(=O)c2cnc(Nc3ccc(N4CCN(C)CC4)cc3)nc2n(C(C)C)c1=O [Example 70, 3-Allyl-1-isopropyl-7-[4-(4-methylpiperazin-1-yl)phenylamino]-1H-pyrimido[4,5-d]pyrimidine-2,4-dione] | 3450 nM | > 50 µM | > 50 µM |  | IC50 [3]: > 40000 nM; IC50 [4]: > 40000 nM |
| CCN1C(=O)N(c2cc(OC)cc(OC)c2)Cc2cnc(NCCCCN3CCN(C)CC3)nc21 [Example 58, 3-(3,5-Dimethoxy-phenyl)-1-ethyl-7-[4-(4-methyl-piperazin-1-yl)-butylamino]-3,4-dihydro-pyrimido[4,5-d]pyrimidin-2(1H)-one] |  |  |  | 134 nM |  |
| COc1cc(OC)cc(N2Cc3cnc(NCCCN4CCN(C)CC4)nc3NC2=O)c1 [Example 54a, 3-(3,5-Dimethoxy-phenyl)-7-[3-(4-methyl-piperazin-1-yl)-propylamino]-3,4-dihydro-1H-pyrimido[4,5-d]pyrimidin-2(1H)-one] |  |  |  | 5990 nM |  |
| CCN(CC)CCCCNc1ncc2c(n1)NC(=O)N(c1cc(OC)cc(OC)c1)C2 [Example 52, 7-(4-Diethylamino-butylamino)-3-(3,5-dimethoxy-phenyl)-3,4-dihydropyrimido[4,5-d]pyrimidin-2(1H)-one] |  |  |  | 6650 nM |  |
| CCN(CC)CCCCNc1ncc2c(n1)N(CC)C(=O)N(c1cc(OC)cc(OC)c1Cl)C2 [Example 65, 3-(2-Chloro-3,5-dimethoxy-phenyl)-7-(4-diethylamino-butylamino)-1-ethyl-3,4-dihydro-pyrimido[4,5-d]pyrimidin-2(1H)-one] |  |  |  | 36 nM |  |
| CCN1C(=O)N(c2cc(OC)cc(OC)c2)Cc2cnc(NCCNCc3ccncc3)nc21 [Example 56, 3-(3,5-Dimethoxy-phenyl)-1-ethyl-7-{2-[(pyridin-4-ylmethyl)-amino]-ethylamino}-3,4-dihydro-pyrimido[4,5-d]pyrimidin-2(1H)-one] |  |  |  | 1930 nM |  |
